Each compound was assayed on HSV-1 (assay: HSV-1 replication in infected Vero 76 cells, viral DNA hybridization capture assay). Conditions: HSV-1, Vero 76 cells, MOI=0.001, 40–48 hours incubation.
Assay type: cell-based
Protocol: Vero 76 cells were maintained in MEM with Earle's salts, L-glutamine, 8% FBS (Hyclone, A-1111-L) and 100 units/mL Penicillin-100 μg/mL Streptomycin. For assay conditions, FBS was reduced to 2%. Cells are seeded into 96-well tissue culture plates at a density of 5×10^4 cells/well after being incubated for 45 min at 37° C. in the presence of HSV-1 or HSV-2 (MOI=0.001). Test compounds are added to the wells and the plates are incubated at 37° C. for 40–48 hours. Cell lysates are prepared as follows: media was removed and replaced with 150 μL/well 0.2 N NaOH with 1% Igepal CA 630 or NP-40. Plates were incubated up to 14 days at room temperature in a humidified chamber to prevent evaporation. • (b) Preparation of Detection DNA.
For the detection probe, a gel-purified, digoxigenin-labeled, […] PCR fragment of the HSV UL-15 sequence was utilized. PCR conditions included 0.5 μM primers, 180 μM dTP, 20 μM dUTP-digoxigenin (Boehringer Mannheim 1558706), 200 μM each of dATP, dCTP, and dGTP, 1×PCR Buffer II (Perkin Elmer), 2.5 mM MgCl2, 0.025 units/μL of AmpliTaq Gold polymerase (Perkin Elmer), and 5 ng of gel-purified HSV DNA per 100 μL. Extension conditions were 10 min at 95° C., followed by 30 cycles of 95° C. for 1 min, 55° C. for 30 sec, and 72° C. for 2 min. The amplification was completed with a 10-min incubation at 72° C. Primers were selected to amplify a 728 bp probe spanning a section of the HSV1 UL15 open reading frame (nucleotides 249–977). Single-stranded transcripts were purified with Promega M13 Wizard kits. The final product was mixed 1:1 with a mixture of 6 M GuSCN, 100 mM EDTA and 200 μg/mL herring sperm DNA and stored at 4° C. • (c) Preparation of Capture Plates.
The capture DNA plasmid (HSV UL13 region in pUC) was linearized by cutting with Xba I, denatured for 15 min at 95° C. and diluted immediately into Reacti-Bind DNA Coating Solution (Pierce, 17250, diluted 1:1 with TE buffer, pH 8) at 1 ng/μL 75 μL/well were added to Corning (#3922 or 9690) white 96-well plates and incubated at room temperature for at least 4 hrs before washing twice with 300 μL/well 0.2×SSC/0.05% Tween-20 (SSC/T buffer). The plates were then incubated overnight at room temperature with 150 μL/well 0.2 N NaOH, 1% IGEPAL and 10 μg/mL herring sperm DNA. • (d) Hybridization.
Twenty-seven (27) μL of cell lysate was combined with 45 μL of hybridization solution (final concentration: 3M GuSCN, 50 mM EDTA, 100 μg/ml salmon sperm DNA, 5× Denhardt's solution, 0.25×APE, and 5 ng of the digoxigenin-labeled detection probe). APE is 1.5 M NH4-acetate, 0.15 M ammonium phosphate, and 5 mM EDTA adjusted to pH 6.0. Mineral oil (50 μL) was added to prevent evaporation. The hybridization plates were incubated at 95° C. for 10 minutes to denature the DNA, then incubated at 42° C. overnight. The wells were washed 6× with 300 μL/well SSC/T buffer then incubated with 75 μL/well anti-digoxigenin-HRP-conjugated antibody (Boehringer Mannheim 1207733, 1:5000 in TE) for 30 min at room temperature. The wells were washed 6× with 300 μL/well with PBS/0.05% Tween-20 before 75 μL/well SuperSignal LBA substrate (Pierce) was added. The plates were incubated at room temperature for 30 minutes and chemiluminescence was measured in a Wallac Victor reader. • e) Results.
The following results were obtained for HSV-1.

Structure (SMILES)	IC50 [µM]
CCCCNc1nccc(-c2c(-c3ccc(F)cc3)nn3c(NCCC)cccc23)n1 [Example 55, 3-[2-(Butylamino)-4-pyrimidinyl]-2-(4-fluorophenyl)-N-propylpyrazolo[1,5-α]pyridin-7-amine]	1.2

Same assay, conditions: Human alphaherpesvirus 1, Vero 76, HSV-1, Vero 76 cells, MOI=0.001, 40–48 hours incubation

Structure (SMILES)	IC50 [µM]
CCCCNc1nccc(-c2c(-c3ccc(F)cc3)nn3c(N4CCOCC4)cccc23)n1 [Example 36, N-Butyl-4-[2-(4-fluorophenyl)-7-(4-morpholinyl)pyrazolo[1,5-α]pyridin-3-yl]-2-pyrimidinamine]	0.8
CCN(CC)c1cccc2c(-c3ccncc3)c(-c3ccc(F)cc3)nn12 [Example 59, N,N-Diethyl-2-(4-fluorophenyl)-3-(4-pyridinyl)pyrazolo[1,5-α]pyridin-7-amine]	4
CCCCNc1cccc2c(-c3ccnc(NC4CC4)n3)c(-c3ccc(F)cc3)nn12 [Example 4, N-Butyl-3-[2-(cyclopropylamino)-4-pyrimidinyl]-2-(4-fluorophenyl)-pyrazolo[1,5-α]pyridin-7-amine]	0.6
COc1ccc(Nc2cccc3c(-c4ccnc(NC5CCCC5)n4)c(-c4ccc(F)cc4)nn23)cc1 [Example 23, 3-[2-(Cyclopentylamino)-4-pyrimidinyl]-2-(4-fluorophenyl)-N-(4-methoxyphenyl)pyrazo[1,5-α]pyridin-7-amine]	1
Fc1ccc(-c2nn3c(NC4CCCC4)cccc3c2-c2cc(-c3ccccc3)nc(NC3CCCC3)n2)cc1 [Example 82, N-Cyclopentyl-3-[2-(cyclopentylamino)-6-phenylpyrimidin-4-yl]-2-(4-fluorophenyl)pyrazolo[1,5-α]pyridin-7-amine]	> 20
OCc1cc(-c2c(-c3ccc(F)cc3)nn3c(Cl)cccc23)nc(NC2CCCC2)n1 [Example 17, [6-[7-Chloro-2-(4-fluorophenyl)pyrazolo[1,5-α]pyridin-3-yl]-2-(cyclopentylamino)-4-pyrimidinyl]methanol]	3
Cc1cc(-c2c(-c3ccc(F)cc3)nn3c(N4CCN(C)CC4)cccc23)nc(NC2CCCC2)n1 [Example 15, N-Cyclopentyl-4-[2-(4-fluorophenyl)-7-(4-methyl-1-piperazinyl)pyrazolo[1,5-α]pyridin-3-yl]-6-methyl-2-pyrimidinamine]	5
CN(C)Cc1cc(-c2c(-c3ccc(F)cc3)nn3c(NC4CCCC4)cccc23)nc(NC2CCCC2)n1 [Example 51, N-Cyclopentyl-3-{2-(cyclopentylamino)-6-[(dimethylamino)methyl]-4-pyrimidinyl}-2-(4-fluorophenyl)pyrazolo[1,5-α]pyridin-7-amine]	5
Cc1cc(-c2c(-c3ccc(F)cc3)nn3c(NC4CCCC4)cccc23)nc(N(C)C)n1 [Example 81, N-Cyclopentyl-3-[2-(dimethylamino)-6-methylpyrimidin-4-yl]-2-(4-fluorophenyl)pyrazolo[1,5-α]pyridin-7-amine]	> 20
Fc1ccc(-c2nn3c(N4CCCC4)cccc3c2-c2ccnc(N3CCCC3)n2)cc1 [Example 69, 2-(4-Fluorophenyl)-7-pyrrolidin-1-yl-3-(2-pyrrolidin-1-ylpyrimidin-4-yl)pyrazolo[1,5-α]pyridine]	4.2
Cc1cc(-c2c(-c3ccc(F)cc3)nn3c(Cl)cccc23)nc(NC2CCCC2)n1 [Example 7, 4-[7-Chloro-2-(4-fluorophenyl)pyrazolo[1,5-α]pyridin-3-yl]-N-cyclopentyl-6-methyl-2-pyrimidinamine]	3.9
O=C(O)c1cc(-c2c(-c3ccc(F)cc3)nn3c(Cl)cccc23)nc(NC2CCCC2)n1 [Example 27, 6-[7-Chloro-2-(4-fluorophenyl)pyrazolo[1,5-α]pyridin-3-yl]-2-(cyclopentylamino)-4-pyrimidinecarboxylic acid]	1.3
CCCCNc1cccc2c(-c3ccnc(NC4CCCC4)n3)c(-c3ccc(F)cc3)nn12 [Example 6, N-Butyl-3-[2-(cyclopentylamino)-4-pyrimidinyl]-2-(4-fluorophenyl)pyrazolo[1,5-α]pyridin-7-amine]	0.2
Fc1ccc(-c2nn3c(NC4CCCC4)cccc3c2-c2cc(COC3CCCCO3)nc(NC3CCCC3)n2)cc1 (stereo not drawn) [Example 16, N-Cyclopentyl-3-{2-(cyclopentylamino)-6-[(tetrahydro-2H-pyran-2-yloxy)methyl]-4-pyrimidinyl}-2-(4-fluorophenyl)pyrazolo[1,5-α]pyridin-7-amine]	40
CN(C)c1nccc(-c2c(-c3ccc(F)cc3)nn3c(NC4CCCC4)cccc23)n1 [Example 11, N-Cyclopentyl-3-[2-(dimethylamino)-4-pyrimidinyl]-2-(4-fluorophenyl)pyrazolo[1,5-α]pyridin-7-amine]	1
CCCCNc1cccc2c(-c3ccnc(NCCCO)n3)c(-c3ccc(F)cc3)nn12 [Example 38, 3-({4-[7-(Butylamino)-2-(4-fluorophenyl)pyrazolo[1,5-α]pyridin-3-yl]-2-pyrimidinyl}amino)-1-propanol]	5
CCCCNc1cccc2c(-c3ccnc(NCCCn4ccnc4)n3)c(-c3ccc(F)cc3)nn12 [Example 44, N-Butyl-2-(4-fluorophenyl)-3-(2-{[3-(1H-imidazol-1-yl)propyl]amino}-4-pyrimidinyl)pyrazolo[1,5-α]pyridin-7-amine]	4
NNc1cc(-c2c(-c3ccc(F)cc3)nn3c(NC4CCCC4)cccc23)ccn1 [Example 30, N-Cyclopentyl-2-(4-fluorophenyl)-3-(2-hydrazino-4-pyridinyl)pyrazolo[1,5-α]pyridin-7-amine]	5
CCCCNc1nccc(-c2c(-c3ccc(F)cc3)nn3c(NC4CC4)cccc23)n1 [Example 33, 3-[2-(Butylamino)-4-pyrimidinyl]-N-cyclopropyl-2-(4-fluorophenyl)pyrazolo[1,5-α]pyridin-7-amine]	0.2
Fc1ccc(-c2nn3c(Cl)cccc3c2-c2ccnc(C3CC3)n2)cc1 [Example 76, 7-Chloro-3-(2-cyclopropylpyrimidin-4-yl)-2-(4-fluorophenyl)pyrazolo[1,5-α]pyridine]	> 20
CCCCNc1cccc2c(-c3ccnc(NCCN4CCOCC4)n3)c(-c3ccc(F)cc3)nn12 [Example 45, N-Butyl-2-(4-fluorophenyl)-3-(2-{[2-(4-morpholinyl)ethyl]amino}-4-pyrimidinyl)pyrazolo[1,5-α]pyridin-7-amine]	5
CCCCNc1cccc2c(-c3ccnc([S+](C)[O-])n3)c(-c3ccc(F)cc3)nn12 (stereo not drawn) [Example 37, N-Butyl-2-(4-fluorophenyl)-3-[2-(methylsulfinyl)-4-pyrimidinyl]-pyrazolo[1,5-α]pyridin-7-amine]	15
CCCCNc1nccc(-c2c(-c3ccc(F)cc3)nn3c(N(C)C)cccc23)n1 [Example 34, 3-[2-(Butylamino)-4-pyrimidinyl]-2-(4-fluorophenyl)-N,N-dimethylpyrazolo[1,5-α]pyridin-7-amine]	0.3
C=CCNc1cccc2c(-c3ccnc(NCCCC)n3)c(-c3ccc(F)cc3)nn12 [Example 54, N-Allyl-3-[2-(butylamino)-4-pyrimidinyl]-2-(4-fluorophenyl)pyrazolo[1,5-α]pyridin-7-amine]	0.5
CCCCNc1nccc(-c2c(-c3ccc(F)cc3)nn3c(NCCCC)cccc23)n1 [Example 3, N-Butyl-3-[2-(butylamino)-4-pyrimidinyl]-2-(4-fluorophenyl)pyrazolo-[1,5-α]pyridin-7-amine]	0.5
CCCCNc1cccc2c(-c3ccnc(NC4CCCC4)n3)c(-c3ccc(Br)cc3)nn12 [Example 10, 2-(4-Bromophenyl)-N-butyl-3-[2-(cyclopentylamino)-4-pyrimidinyl]pyrazolo[1,5-α]pyridin-7-amine]	5

From patent publication US7163940B2, “Pyrazolopyridinyl pyrimidine therapeutic compounds” (SmithKline Beecham Corporation, priority 2000, dated 2007)
